Experimental data published in ChEMBL document CHEMBL5625202, “Synthesis, characterization and anti-breast cancer activities of stachydrine derivatives” (Eur J Med Chem, 2023).
Active and inactive are the calls of the source. No cut-off for these calls is given here.

Experiments:
4T1 [1] = test: Anticancer activity against mouse 4T1 cells assessed as inhibition of cell growth incubated for 24 hrs by CCK-8 assay; type: functional, cell-based; conditions: 4T1, 24 h
4T1 [2] = test: Anticancer activity against mouse 4T1 cells assessed as inhibition of cell growth incubated for 48 hrs by CCK-8 assay; type: functional, cell-based; conditions: 4T1, 48 h
4T1 [3] = test: Anticancer activity against mouse 4T1 cells assessed as inhibition of cell growth incubated for 72 hrs by CCK-8 assay; type: functional, cell-based; conditions: 4T1, 72 h
4T1 [4] = test: Induction of apoptosis in mouse 4T1 cells assessed as apoptotic rate at 1000 micromol/L incubated for 24 hrs by Annexin-V/PI staining based flow cytometry relative to control; type: functional; conditions: dose 1000 µmol/L, at 1000 µM
4T1 [5] = test: Induction of apoptosis in mouse 4T1 cells assessed as apoptotic rate at 4000 micromol/L incubated for 24 hrs by Annexin-V/PI staining based flow cytometry relative to control; type: functional; conditions: dose 4000 µmol/L, at 4000 µM
4T1 [6] = test: Induction of apoptosis in mouse 4T1 cells assessed as apoptotic rate at 8000 micromol/L incubated for 24 hrs by Annexin-V/PI staining based flow cytometry relative to control; type: functional; conditions: dose 8000 µmol/L, at 8000 µM
4T1 [7] = test: Induction of mitochondrial membrane potential loss in mouse 4T1 cells assessed as green fluorescence at 4000 uM incubated for 24 hrs by JC-1 staining based flow cytometric analysis (reference value: 11.7%); type: cell-based
4T1 [8] = test: Induction of mitochondrial membrane potential loss in mouse 4T1 cells assessed as red fluorescence at 4000 uM incubated for 24 hrs by JC-1 staining based flow cytometric analysis (Rvb= 87.9%); type: cell-based
[9] = Toxicity in BALB/c mouse implanted with mouse 4T1 cells assessed as change in lung histopathology at 0.2 mmol/Kg, po administered once every day for 14 days; type: organism-based; conditions: in vivo, 336 h, time 14 day
[10] = Toxicity in BALB/c mouse implanted with mouse 4T1 cells assessed as increase in white blood cells at 0.2 mmol/Kg, po administered once every day for 14 days by routine blood analysis; type: organism-based; conditions: in vivo, 336 h, time 14 day
4T1 [11] = test: Antitumor activity against mouse 4T1 cells implanted in BALB/c mouse assessed as tumor growth inhibition at 0.2 mmol/Kg, po administered once every day for 14 days relative to control; type: functional; conditions: 4T1, 336 h, time 14 day, read-out: TGI
4T1 [12] = test: Antitumor activity against mouse 4T1 cells implanted in BALB/c mouse assessed as tumor cell shrinkage at 0.2 mmol/Kg, po administered once every day for 14 days by histological staining based analysis; type: functional, organism-based; conditions: time 14.0 day
[13] = Toxicity in BALB/c mouse implanted with mouse 4T1 cells assessed as body weight loss at 0.2 mmol/Kg, po administered once daily for 14 days; type: organism-based; conditions: in vivo, 336 h, time 14 day
[14] = Toxicity in BALB/c mouse implanted with mouse 4T1 cells assessed as increase in lymphocytes at 0.2 mmol/Kg, po administered once every day for 14 days by routine blood analysis; type: organism-based; conditions: in vivo, 336 h, time 14 day
[15] = Toxicity in BALB/c mouse implanted with mouse 4T1 cells assessed as increase in neutrophil granulocytes at 0.2 mmol/Kg, po administered once every day for 14 days by routine blood analysis; type: organism-based; conditions: in vivo, 336 h, time 14 day
[16] = Toxicity in BALB/c mouse implanted with mouse 4T1 cells assessed as increase in monocytes at 0.2 mmol/Kg, po administered once every day for 14 days by routine blood analysis; type: organism-based; conditions: in vivo, 336 h, time 14 day
[17] = Toxicity in BALB/c mouse implanted with mouse 4T1 cells assessed as increase in AST level at 0.2 mmol/Kg, po administered once every day for 14 days by routine blood analysis; type: organism-based; conditions: in vivo, 336 h, time 14 day
[18] = Toxicity in BALB/c mouse implanted with mouse 4T1 cells assessed as increase in ALT level at 0.2 mmol/Kg, po administered once every day for 14 days by routine blood analysis; type: organism-based; conditions: in vivo, 336 h, time 14 day
[19] = Toxicity in BALB/c mouse implanted with mouse 4T1 cells assessed as effect on BUN level at 0.2 mmol/Kg, po administered once every day for 14 days by routine blood analysis; type: organism-based; conditions: in vivo, 336 h, time 14 day
[20] = Toxicity in BALB/c mouse implanted with mouse 4T1 cells assessed as effect on CREA level at 0.2 mmol/Kg, po administered once every day for 14 days by routine blood analysis; type: organism-based; conditions: in vivo, 336 h, time 14 day
[21] = Toxicity in BALB/c mouse implanted with mouse 4T1 cells assessed as reduction in spleen index at 0.2 mmol/Kg, po administered once every day for 14 days relative to control; type: organism-based; conditions: in vivo, 336 h, time 14 day
[22] = Toxicity in BALB/c mouse implanted with mouse 4T1 cells assessed as change in heart histopathology at 0.2 mmol/Kg, po administered once every day for 14 days; type: organism-based; conditions: in vivo, 336 h, time 14 day
[23] = Toxicity in BALB/c mouse implanted with mouse 4T1 cells assessed as change in liver histopathology at 0.2 mmol/Kg, po administered once every day for 14 days; type: organism-based; conditions: in vivo, 336 h, time 14 day
[24] = Toxicity in BALB/c mouse implanted with mouse 4T1 cells assessed as change in kidney histopathology at 0.2 mmol/Kg, po administered once every day for 14 days; type: organism-based; conditions: in vivo, 336 h, time 14 day
4T1 [25] = test: Antitumor activity against mouse 4T1 cells implanted in BALB/c mouse assessed as change in tumor weight at 0.2 mmol/Kg, po administered once every day for 14 days; type: functional, organism-based; conditions: time 14.0 day
[26] = Toxicity in BALB/c mouse implanted with mouse 4T1 cells assessed as increase in mean platelet volume at 0.2 mmol/Kg, po administered once every day for 14 days by routine blood analysis; type: organism-based; conditions: in vivo, 336 h, time 14 day
[27] = Toxicity in BALB/c mouse implanted with mouse 4T1 cells assessed as blurred spleen morphology at 0.2 mmol/Kg, po administered once every day for 14 days; type: organism-based; conditions: in vivo, 336 h, time 14 day
[28] = Toxicity in BALB/c mouse implanted with mouse 4T1 cells assessed as splenic edema at 0.2 mmol/Kg, po administered once every day for 14 days; type: organism-based; conditions: in vivo, 336 h, time 14 day
[29] = Toxicity in BALB/c mouse implanted with mouse 4T1 cells assessed as increase in splenic red pulp at 0.2 mmol/Kg, po administered once every day for 14 days; type: organism-based; conditions: in vivo, 336 h, time 14 day
[30] = Prodrug conversion in carboxylesterase (unknown origin) solution assessed as drug hydrolysis by measuring stachydrine release at 3 to 20 hrs; type: ADME, Homo sapiens; conditions: time 3-20 hrs
[31] = Prodrug conversion in cell culture medium containing 10% FBS assessed as drug hydrolysis by measuring stachydrine release at 3 to 20 hrs; type: ADME; conditions: cattle; time 3-20 hrs
[32] = Prodrug conversion in serum (unknown origin) assessed as drug hydrolysis by measuring stachydrine release at 3 to 20 hrs; type: ADME, cell-free; conditions: time 3-20 hrs
4T1 [33] = test: Antitumor activity against mouse 4T1 cells implanted in BALB/c mouse assessed as tumor cell necrosis at 0.2 mmol/Kg, po administered once every day for 14 days by histological staining based analysis; type: functional, organism-based; conditions: time 14.0 day
4T1 [34] = test: Induction of apoptosis in mouse 4T1 cells assessed as apoptotic rate at 0.04 micromol/L incubated for 24 hrs by Annexin-V/PI staining based flow cytometry relative to control; type: functional; conditions: dose 0.04 µmol/L, at 0.04 µM
4T1 [35] = test: Induction of apoptosis in mouse 4T1 cells assessed as apoptotic rate at 0.3 micromol/L incubated for 24 hrs by Annexin-V/PI staining based flow cytometry relative to control; type: functional; conditions: dose 0.3 µmol/L, at 0.3 µM
4T1 [36] = test: Induction of apoptosis in mouse 4T1 cells assessed as apoptotic rate at 2 micromol/L incubated for 24 hrs by Annexin-V/PI staining based flow cytometry relative to control; type: functional; conditions: dose 2 µmol/L, at 2 µM
4T1 [37] = test: Induction of mitochondrial membrane potential loss in mouse 4T1 cells assessed as green fluorescence at 50 uM incubated for 24 hrs by JC-1 staining based flow cytometric analysis (reference value: 11.7%); type: cell-based
4T1 [38] = test: Induction of mitochondrial membrane potential loss in mouse 4T1 cells assessed as red fluorescence at 50 uM incubated for 24 hrs by JC-1 staining based flow cytometric analysis (reference value: 87.9%); type: cell-based
4T1 [39] = test: Induction of apoptosis in mouse 4T1 cells assessed as apoptotic rate at 50 micromol/L incubated for 24 hrs by Annexin-V/PI staining based flow cytometry relative to control; type: functional; conditions: dose 50 µmol/L, at 50 µM
4T1 [40] = test: Induction of apoptosis in mouse 4T1 cells assessed as apoptotic rate at 250 micromol/L incubated for 24 hrs by Annexin-V/PI staining based flow cytometry relative to control; type: functional; conditions: dose 250 µmol/L, at 250 µM
4T1 [41] = test: Induction of mitochondrial membrane potential loss in mouse 4T1 cells assessed as green fluorescence at 250 uM incubated for 24 hrs by JC-1 staining based flow cytometric analysis (reference value: 11.7%); type: cell-based
4T1 [42] = test: Induction of mitochondrial membrane potential loss in mouse 4T1 cells assessed as red fluorescence at 250 uM incubated for 24 hrs by JC-1 staining based flow cytometric analysis (Rvb= 87.9%); type: cell-based
4T1 [43] = test: Inhibition of cell migration in mouse 4T1 cells assessed as reduction in wound healing incubated for 24 hrs by microscopic analysis; type: functional, cell-based

CCCCOC(=O)C1CCC[N+]1(C)C.[Cl-] (stereo not drawn)
IC50 (4T1 [1]): 6380 µM
IC50 (4T1 [2]): 6310 µM
IC50 (4T1 [3]): 5170 µM
Activity (4T1 [4]): 29.06%
Activity (4T1 [5]): 39.8%
Activity (4T1 [6]): 51.28%
Activity (4T1 [7]): 38.9%
Activity (4T1 [8]): 60.9%
Activity [9]: Non-Toxic
Activity [10]: Non-Toxic
inhibition in vivo at 200 µmol/kg (4T1 [11]): 45.1%
Activity (4T1 [12]): Active
Activity [13]: Toxic
Activity [14]: Non-Toxic
Activity [15]: Non-Toxic
Activity [16]: Non-Toxic
Activity [17]: Toxic
Activity [18]: Toxic
Activity [19]: Non-Toxic
Activity [20]: Non-Toxic
Activity [21]: Toxic
Activity [22]: Non-Toxic
Activity [23]: Non-Toxic
Activity [24]: Non-Toxic
Activity (4T1 [25]): Active
Activity [26]: Non-Toxic
Activity [27]: Toxic
Activity [28]: Toxic
Activity [29]: Toxic
Drug metabolism [30]: Metabolite_Detected
Drug metabolism [31]: Metabolite_Detected
Drug metabolism [32]: Metabolite_Detected
Activity (4T1 [33]): Active

CCCCCCCCCCCCCCCCCCOC(=O)C1CCC[N+]1(C)C (stereo not drawn)
IC50 (4T1 [1]): 2.42 µM
IC50 (4T1 [2]): 2.73 µM
IC50 (4T1 [3]): 2.01 µM

CCOC(=O)C1CCC[N+]1(C)C (stereo not drawn)
IC50 (4T1 [1]): 1710 µM
IC50 (4T1 [2]): 14000 µM
IC50 (4T1 [3]): 7890 µM

CCCCCCCCCCOC(=O)C1CCC[N+]1(C)C (stereo not drawn)
IC50 (4T1 [1]): 204 µM
IC50 (4T1 [2]): 136 µM
IC50 (4T1 [3]): 98 µM

CCCCCCCCCCCCCCCCOC(=O)C1CCC[N+]1(C)C.[Cl-] (stereo not drawn)
IC50 (4T1 [1]): 0.858 µM
IC50 (4T1 [2]): 0.701 µM
IC50 (4T1 [3]): 0.341 µM
Activity (4T1 [34]): 52%
Activity (4T1 [35]): 62.1%
Activity (4T1 [36]): 72%
Drug metabolism [30]: Metabolite_Detected
Drug metabolism [31]: Metabolite_Detected
Drug metabolism [32]: Metabolite_Detected

N#CC(C#N)=NNc1cccc(Cl)c1
Activity (4T1 [37]): 48.4%
Activity (4T1 [38]): 51.1%

CCCCCCCCCCCCCCOC(=O)C1CCC[N+]1(C)C (stereo not drawn)
IC50 (4T1 [1]): 165 µM
IC50 (4T1 [2]): 166 µM
IC50 (4T1 [3]): 57 µM

CCCCCCOC(=O)C1CCC[N+]1(C)C (stereo not drawn)
IC50 (4T1 [1]): 2550 µM
IC50 (4T1 [2]): 1560 µM
IC50 (4T1 [3]): 1100 µM

CCCCCCCCOC(=O)C1CCC[N+]1(C)C.[Cl-] (stereo not drawn)
IC50 (4T1 [1]): 508 µM
IC50 (4T1 [2]): 249 µM
IC50 (4T1 [3]): 140 µM
Activity (4T1 [4]): 80.8%
Activity (4T1 [39]): 36.82%
Activity (4T1 [40]): 69.9%
Activity (4T1 [41]): 53.5%
Activity (4T1 [42]): 46.5%
inhibition (4T1 [43]): Dose-Dependent Effect
Activity [9]: Non-Toxic
Activity [10]: Non-Toxic
inhibition in vivo at 200 µmol/kg (4T1 [11]): 51.5%
Activity (4T1 [12]): Active
Activity [13]: Toxic
Activity [14]: Non-Toxic
Activity [15]: Non-Toxic
Activity [16]: Non-Toxic
Activity [17]: Toxic
Activity [18]: Toxic
Activity [19]: Non-Toxic
Activity [20]: Non-Toxic
Activity [21]: Toxic
Activity [22]: Non-Toxic
Activity [23]: Non-Toxic
Activity [24]: Non-Toxic
Activity (4T1 [25]): Active
Activity [26]: Non-Toxic
Activity [27]: Toxic
Activity [28]: Toxic
Activity [29]: Toxic
Drug metabolism [30]: Metabolite_Detected
Drug metabolism [31]: Metabolite_Detected
Drug metabolism [32]: Metabolite_Detected
Activity (4T1 [33]): Active
